The results in this text go back to patent US9062088B2, “CDK-inhibiting pyrrolopyrimidine carboxamide derivative or pharmaceutically acceptable salt thereof, and pharmaceutical composition containing the same as active ingredient for preventing or treating hepatocellular carcinoma” (SNU R&DB Foundation, priority 2010, dated 2015).

Several values for one entry are separate records, joined by “and”; a condition that tells them apart may be missing. Equal values may be shown once.

The subject of test [1] is caspase-3 activity in SNU-354 cells. In words: Measurement of caspase-3 activity (Experimental Example 4). The format is cell-based, human. Also noted: unit not given here. The procedure: SNU-354 cells treated with the compounds of Example 1˜Example 6 were lysed with lysis buffer (0.5% triton X-100, 20 mM Tris-HCl (pH 7.5), 2 mM magnesium chloride, 1 mM DTT, 1 mM EGTA, 50 mM β-glycerophosphate, 25 mM sodium fluoride, 1 mM Na3VO4, 2 μg/mL leupeptin, 2 μg/mL pepstatin A, 100 μg/mL phenylmethylsulfonyl fluoride, 1 μg/mL antipain). The protease analysis buffer necessary for the reaction (20 mM HEPES (pH 7.5), 10% glycerol, 2 mM DTT) was mixed with 20 μM Ac-DEVD-AMC (BD Biosciences, CA, USA) and cell lysates, followed by reaction at 37° C. for 1 hour. Upon completion of the reaction, caspase-3 activity was measured at 380 nm of excitation and 460 nm of emission with spectrofluorometer (TECAN, Switzerland) and the results are shown in FIG. 25 and Table 12.

The test system of test [2] is SNU-354 cells. In words: Flow cytometry, sub G1 ratio change (Experimental Example 3). The note with it: 10 μM, 24 hours, vehicle = 1.0. The test is classed as cell-based, human. The procedure:
SNU-354 cells were seeded in a 90 mm dish, to which vehicle and the compounds of Examples 2˜6 were treated at the concentration of 10 μM each for 24 hours. The cells were collected and washed with cold PBS, followed by reaction in 500 μl of cold 70% ethanol at 4° C. for overnight to fix the cells. The cells were washed with 500 μl of PBS three times, followed by reaction with 500 μl of PBS containing 50 μg/mL propidium iodide (P1) and 50 μl of 1 mg/mL RNAse A at room temperature for 30 minutes in the darkness. Fluorescence of the P1 stained cell was measured by using FACS caliber flow cytometer and cell quest program (Becton Dickinson Immunocytometry Systems, CA, USA). Sub G1 ratio changes of SNU-354 cells induced by the compounds were measured by FACS analysis.
Background: Flow cytometry measures light scatter and fluorescence of single cells or particles in a stream.

The test system of test [3] is SNU-354 cells. As to the kind of experiment: 3H-thymidine incorporation assay. The note with it: 18˜24 hours. The test is classed as cell-based, human. The procedure:
SNU-354 cells were distributed in a 6-well plate at the density of 5×10^4 cells/well, followed by culture in FBS-free medium for 24 hours. 24 hours later, the medium was replaced with the fresh one supplemented with FBS, the compounds of Examples 1 and 2 at different concentrations and 1 μCi/mL [^3H]dT (GE Healthcare, UK). 18˜24 hours later, the cells were washed with cold PBS and then fixed with cold 5% trichloroacetic acid. DNA was lysed in […] sodium hydroxide at 37° C. for 1 hour. Then, [^3H]dT incorporated during intracellular DNA synthesis was measured by LSC (liquid scintillation counting). Intracellular DNA synthesis measured above was used as index for the evaluation of cell viability.
In general terms: Dividing cells build labelled thymidine or BrdU into new DNA.

Test [4] addresses T1, Cdk7/cyclin H/MAT1 (Homo sapiens, UniProt P50613).
T1 construct: purchased Upstate
As to the kind of experiment: In vitro kinase assay of Cdk7, RNA Pol II-CTD-GST substrate. The test is classed as biochemical. As to conditions: 0 nM = 100. The procedure: (§1) To kinase assay buffer were added RNA Pol II-CTD-GST protein (Jena Bioscience, Germany) as a substrate, Cdk9/cyclin T1 or Cdk7/cyclin H/MAT1 recombinant protein (Upstate) as an enzyme, 2.5 μCi [γ-32P]ATP, and 100 μM MgAc/ATP. The total reaction volume was adjusted to 50 μl. Kinase assay reaction was induced at 30° C. for 20 minutes. Upon completion of the reaction, electrophoresis was performed on 8% SDS-polyacrylamide gel. The activities of Cdk7 and Cdk9 over the concentrations of the compounds of Example 1 and Example 2 were confirmed by autoradiography and the results are shown in FIG. 5˜FIG. 8 and Table 3.
(§2) The intensity of bands was analyzed by densitometry (GS-800, Bio-Rad).

Test [5] concerns Cdk7. As to the kind of experiment: Western blotting of Cdk7 activity (phospho RNA Pol II Ser 5). The format is cell-based, human. The note with it: 0 nM = 100. The procedure:
(§3) After treating the compound of Example 2 to SNU-354 cells, cell pellet was lysed with lysis buffer (0.5% triton X-100, 20 mM Tris-HCl (pH 7.5), 2 mM magnesium chloride, 1 mM DTT, 1 mM EGTA, 50 mM β-glycerophosphate, 25 mM sodium fluoride, 1 mM Na3VO4, 2 μg/mL leupeptin, 2 μg/mL pepstatin A, 100 μg/mL phenylmethylsulfonyl fluoride, and 1 μg/mL antipain) at 4° C. for 1 hour, followed by quantification of protein. A proper amount of protein was electrophoresed on SDS-PAGE gel and then transferred onto polyvinylidene difluoride membrane (Millipore Co., Bedford, Mass.). The membrane was reacted in inhibiting solution (PBS, 5% skim milk, 0.1% tween-20) at room temperature for 1˜2 hours. The membrane was reacted with the primary antibody (goat anti-phospho-Rb, rabbit anti-nucleolin) diluted in the inhibiting solution (1:1000). Then, the membrane was washed with PBST, followed by reaction with the proper secondary antibody (horseradish peroxidase (HRP) conjugated) at room temperature for 1 hour.
(§4) Experiment was performed by the same manner as described in step 2 of Experimental Example 1 except that rabbit anti-phospho RNA Pol II (Ser 5) and rabbit anti-phospho RNA Pol II (Ser 2) (from Bethyl, TX, USA) were used as primary antibodies. The results are shown FIG. 9˜FIG. 12, and Table 4 and Table 5.
For orientation: In western blotting, separated proteins are transferred to a membrane and probed.

Test [6] deals with T2, Cdk9/cyclin T1 (Homo sapiens, UniProt P50750).
T2 construct: purchased Upstate
As to the kind of experiment: In vitro kinase assay of Cdk9, RNA Pol II-CTD-GST substrate. The test is classed as biochemical. As to conditions: 0 nM = 100. The procedure:
as §1, §2

Test [7] relates to Cdk9. As to the kind of experiment: Western blotting of Cdk9 activity (phospho RNA Pol II Ser 2). The test is classed as cell-based, human. As to conditions: 0 nM = 100. The procedure: as §3, §4
Test [8] relates to SNU-354 cells. As to the kind of experiment: MTT assay, cell viability. The test is classed as cell-based. The note with it: Homo sapiens, SNU-354, read-out: Cell viability (%). The procedure: Cell viability was measured by MTT assay. SNU-354 cells in the log phase of cell growth curve were distributed in a 24-well plate at the density of 2×10^4 cells/well. […] After allowing enough time for reaction, MTT reagent (MTT dissolved in PBS at the concentration of 5 mg/mL) (Sigma-Aldrich, USA) was added to each well, followed by reaction at 37° C. for 3 hours. Then, the supernatant was eliminated and the precipitated formazan crystals were dissolved in dimethyl sulfoxide, followed by measurement of absorbance with ELISA plate reader.

T2 sequence (P50750 whole entry): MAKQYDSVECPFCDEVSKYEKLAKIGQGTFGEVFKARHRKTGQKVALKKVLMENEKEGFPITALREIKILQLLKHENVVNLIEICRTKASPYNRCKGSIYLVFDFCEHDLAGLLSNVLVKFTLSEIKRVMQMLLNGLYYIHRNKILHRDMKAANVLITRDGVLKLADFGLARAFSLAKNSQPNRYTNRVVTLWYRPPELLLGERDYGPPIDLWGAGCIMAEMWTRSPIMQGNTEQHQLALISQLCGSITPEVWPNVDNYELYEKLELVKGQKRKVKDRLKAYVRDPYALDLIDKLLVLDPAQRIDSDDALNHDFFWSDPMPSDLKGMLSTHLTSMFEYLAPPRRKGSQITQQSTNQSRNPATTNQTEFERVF
T2 sequence (O60563 whole entry partner): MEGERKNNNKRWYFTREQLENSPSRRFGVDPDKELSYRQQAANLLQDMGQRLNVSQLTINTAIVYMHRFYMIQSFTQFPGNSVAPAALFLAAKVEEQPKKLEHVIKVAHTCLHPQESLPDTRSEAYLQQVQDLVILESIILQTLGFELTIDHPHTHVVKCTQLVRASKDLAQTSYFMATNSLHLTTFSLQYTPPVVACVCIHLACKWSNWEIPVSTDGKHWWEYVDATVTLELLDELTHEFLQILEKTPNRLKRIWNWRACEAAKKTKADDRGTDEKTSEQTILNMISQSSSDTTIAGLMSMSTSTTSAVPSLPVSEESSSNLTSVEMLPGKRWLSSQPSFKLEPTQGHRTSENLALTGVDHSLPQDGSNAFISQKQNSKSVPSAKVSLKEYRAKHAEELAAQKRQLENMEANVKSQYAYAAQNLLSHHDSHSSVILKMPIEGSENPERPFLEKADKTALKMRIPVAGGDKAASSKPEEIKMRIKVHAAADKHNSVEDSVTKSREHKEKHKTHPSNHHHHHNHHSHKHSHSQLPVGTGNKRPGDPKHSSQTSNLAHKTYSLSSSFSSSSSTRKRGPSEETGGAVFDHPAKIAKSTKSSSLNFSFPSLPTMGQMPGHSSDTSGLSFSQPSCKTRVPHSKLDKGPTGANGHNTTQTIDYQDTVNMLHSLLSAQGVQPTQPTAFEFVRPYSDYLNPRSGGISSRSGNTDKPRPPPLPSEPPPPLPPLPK
T1 sequence (P50613 whole entry): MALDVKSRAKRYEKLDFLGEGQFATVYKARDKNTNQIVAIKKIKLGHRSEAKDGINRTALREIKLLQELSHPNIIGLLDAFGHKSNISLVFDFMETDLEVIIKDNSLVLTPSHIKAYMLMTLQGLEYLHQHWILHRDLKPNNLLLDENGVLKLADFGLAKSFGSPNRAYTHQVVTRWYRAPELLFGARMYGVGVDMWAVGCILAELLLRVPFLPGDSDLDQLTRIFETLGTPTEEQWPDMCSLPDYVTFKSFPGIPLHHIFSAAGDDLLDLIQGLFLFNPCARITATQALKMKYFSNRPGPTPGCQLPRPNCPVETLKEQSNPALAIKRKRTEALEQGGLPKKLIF
T1 sequence (P51946 whole entry partner): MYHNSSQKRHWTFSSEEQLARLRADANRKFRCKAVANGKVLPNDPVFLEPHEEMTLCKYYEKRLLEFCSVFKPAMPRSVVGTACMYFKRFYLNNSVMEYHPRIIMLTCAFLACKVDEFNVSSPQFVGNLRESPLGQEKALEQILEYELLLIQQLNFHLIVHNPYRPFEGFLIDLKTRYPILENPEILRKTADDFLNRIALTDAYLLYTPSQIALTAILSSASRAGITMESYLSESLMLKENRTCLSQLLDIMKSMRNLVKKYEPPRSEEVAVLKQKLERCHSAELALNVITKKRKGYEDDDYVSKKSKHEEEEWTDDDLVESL
T1 sequence (P51948 whole entry partner): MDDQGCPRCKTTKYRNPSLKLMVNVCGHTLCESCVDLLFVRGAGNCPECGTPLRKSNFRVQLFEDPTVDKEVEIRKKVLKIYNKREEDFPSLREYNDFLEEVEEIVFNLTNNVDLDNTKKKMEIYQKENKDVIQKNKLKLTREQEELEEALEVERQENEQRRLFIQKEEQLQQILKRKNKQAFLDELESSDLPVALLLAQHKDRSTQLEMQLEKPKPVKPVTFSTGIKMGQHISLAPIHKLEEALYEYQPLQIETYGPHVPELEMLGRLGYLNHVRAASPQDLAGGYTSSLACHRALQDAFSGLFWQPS

Turning to `NC(=O)c1c(Br)n([C@H]2O[C@@H](COC(=O)c3ccccc3)[C@@H](O)[C@@H]2O)c2ncnc(N)c12` [Example 5, ((2S,3S,4S,5S)-5-(4-amino-6-bromo-5-carbamoyl-7H-pyrrolo[2,3-d]pyrimidin-7-yl)-3,4-dihydroxytetrahydrofuran-2-yl)methyl benzoate], the Caspase-3 activity in test [1] (5 μM) is listed as 9.0; in test [1] (10 μM) it was 10.3. Moreover, in test [2], the “sub G1 ratio change” value is 5.5 and 6.0.

Consider `CCC(=O)OC[C@@H]1O[C@H](n2c(Br)c(C(N)=O)c3c(N)ncnc32)[C@@H](O)[C@@H]1O` [Example 6, ((2S,3S,4S,5S)-5-(4-amino-6-bromo-5-carbamoyl-7H-pyrrolo[2,3-d]pyrimidin-7-yl)-3,4-dihydroxytetrahydrofuran-2-yl)methyl propionate], for which the figures for the Caspase-3 activity in test [1] (5 μM) and in test [1] (10 μM) were 10.7 and 11.7, respectively. Also, the “sub G1 ratio change” value in test [2] was determined as 5.9.

As for `CC(C)(C)C(=O)OC[C@@H]1O[C@H](n2cnc(N)c3c(C(N)=O)c(Br)nc2-3)[C@H](O)[C@H]1O` [Example 3, ((2S,3R,4R,5S)-5-(4-amino-6-bromo-5-carbamoyl-1H-pyrrolo[2,3-d]pyrimidin-1-yl)-3,4-dihydroxy-tetrahydrofuran-2-yl)methyl pivalate], the Caspase-3 activity in test [1] (5 μM) amounted to 8.2; in test [1] (10 μM), 7.8. In test [2], the “sub G1 ratio change” value worked out at 5.7.

Take `CC(=O)O[C@H]1[C@H](OC(C)=O)[C@@H](n2cnc(N)c3c(C(N)=O)c(Br)nc2-3)O[C@H]1COC(=O)C(C)C` [Example 4, (2S,3S,4R,5S)-2-(4-amino-6-bromo-5-carbamoyl-1H-pyrrolo[2,3-d]pyrimidin-1-yl)-5-(isobutyryloxymethyl)tetrahydrofuran-3,4-diyl diacetate]: the figures for the Caspase-3 activity in test [1] (5 μM) and in test [1] (10 μM) were 5.1 and 7.0, respectively. Besides, in test [2], the “sub G1 ratio change” value is recorded as 5.5.

For `CC[C@H](CO)Nc1nc(NCc2ccccc2)c2ncn(C(C)C)c2n1` [Roscosvitine, roscosvitine, reference compound], the “^3H-thymidine incorporation (%)” value in test [3] (5.0 μM) was 98.2%; in test [3] (10.0 μM), 91.0%; in test [3] (50.0 μM), 47.2%. The Cdk7 activity in test [4] (10 nM) is 92.0%; in test [4] (100 nM), 43.4%; in test [4] (1000 nM), 17.4%; in test [5] (0.1 nM), 96.0%; in test [5] (0.5 nM), 73.1%; in test [5] (1 nM), 51.5%. The results for the Cdk7 activity in test [5] (5 nM), in test [5] (10 nM) and in test [5] (50 nM) were 51.6%, 49.9% and 4.0%, respectively. The Cdk9 activity in test [6] (10 nM) is listed as 55.6%; in test [6] (100 nM), 44.6%; in test [6] (1000 nM), 42.2%; in test [7] (0.1 nM), 69.3%; in test [7] (0.5 nM), 48.5%; in test [7] (1 nM), 38.1%. Also, the figures for the Cdk9 activity in test [7] (5 nM), in test [7] (10 nM) and in test [7] (50 nM) were 35.7%, 34.6% and 2.2%, respectively.

For `Cn1cnc2c(NCc3ccccc3)nc(NCCO)nc21` [Olomoucine, olomoucine, reference compound], in test [3] (5.0 μM), the “^3H-thymidine incorporation (%)” value is given as 99.7%. In test [3] (10.0 μM), the “^3H-thymidine incorporation (%)” value was found to be 96.3%. Besides, the “^3H-thymidine incorporation (%)” value in test [3] (50.0 μM) came to 77.2%. Moreover, in test [8], the viability at 0.5 µM came out at 98.9%, the viability at 1 µM amounted to 99.9%, the viability at 2 µM was 99.9% and the viability at 5 µM is 98.5%. Moreover, in test [8], the viability at 10 µM was 101% and the viability at 50 µM stood at 96%.

The viability is a read-out of living cells in per cent, often relative to untreated cells.
